In patent US20050209157A1, “Short bioactive peptides and methods for their use” (priority 2001, published 2005):
No end group written: not given here.

Assays:
[1] = tested on: Pseudomonas aeruginosa ATCC 9027; assay: Antimicrobial assay I, MIC by OD measurement; format: cell-based; conditions: 37° C. for 24 hours, absorbance 620 nm
[2] = tested on: Staphylococcus aureus ATCC 6538; assay: Antimicrobial assay I, MIC by OD measurement; format: cell-based; conditions: 37° C. for 24 hours, absorbance 620 nm
[3] = tested on: human red blood cells (RBC); assay: in vitro; format: cell-based; conditions: hemolytic assay, concentration at 50% hemolysis, 1 hour at 37° C.
in vitro = conditions: human, WI38 normal lung fibroblast cells, LD50 WI38, WI38 normal lung fibroblast line, MTT, 24 hours with peptide
[4] = tested on: yeast (Saccharomyces cerevisiae); assay: Antimicrobial assay I, yeast assay in RPMI 1640; format: cell-based; conditions: RPMI 1640 media
BMKC = assay: Anti-cancer assay, MTT, LD50; format: cell-based; conditions: BMKC cloned melanoma line, 24 hours with peptide
Text: (§1) Numbers are LD50 values (μg/mL).

PC3 = assay: Anti-cancer assay, MTT, LD50; format: cell-based; conditions: 24 hours with peptide, prostate adenocarcinoma
Text: as §1

HeLaS3 = assay: Anti-cancer assay, MTT, LD50; format: cell-based; conditions: 24 hours with peptide, cervical carcinoma
Text: as §1

SW480 = assay: Anti-cancer assay, MTT, LD50; format: cell-based; conditions: SW480 colon adenocarcinoma line, 24 hours with peptide
Text: as §1

H1299 = assay: Anti-cancer assay, MTT, LD50; format: cell-based; conditions: 24 hours with peptide, lung large cell carcinoma
Text: as §1

MCF7 = assay: Anti-cancer assay, MTT, LD50; format: cell-based; conditions: MCF7 breast adenocarcinoma line, MTT, 24 hours with peptide
Text: as §1

WI38 = conditions: MTT, 24 hours with peptide; for WI38 LD50: normal fibroblast line; for LD50 WI38: WI38 normal lung fibroblast line

Row | Substance | paerug9027 (MIC) [1] | staph6538 (MIC) [2] | LD50 [3] | CC50 at 24 h (in vitro) | yeast (MIC or MFC) [4] | LD50 BMKC (BMKC) | PC3 LD50 (PC3) | HeLaS3 LD50 (HeLaS3) | LD50 SW480 (SW480) | H1299 LD50 (H1299) | LD50 MCF7 (MCF7) | WI38 LD50 (WI38) | LD50 WI38 (WI38)
1 | FAKLAKKALAKLL-NH2 [P148] | 200 µg/mL | > (> indicates greater than 200 μg/mL) | > (> indicates greater than 1000) | 380 µg/mL | 200 µg/mL | 330 µg/mL | > (> indicates greater than 1000) | > (> indicates greater than 1000) | > (> indicates greater than 1000) | 660 µg/mL | 315 µg/mL | 380 µg/mL | –
2 | FAKLLAKLAKKSL-NH2 [P127] | 25 µg/mL | 100 µg/mL | > (> indicates greater than 1000) | 760 µg/mL | 100 µg/mL | 535 µg/mL | > (> indicates greater than 1000) | 610 µg/mL | 400 µg/mL | 770 µg/mL | 440 µg/mL | 760 µg/mL | –
3 | FAKKLAKKLAKAAL-NH2 [P76, FAKKLAKKLAKAAL-NH2] | 100 µg/mL | 10 µg/mL | > (> indicates greater than 1000) | 445 µg/mL | 200 µg/mL | 750 µg/mL | 675 µg/mL | 380 µg/mL | 400 µg/mL | 860 µg/mL | 970 µg/mL | 445 µg/mL | –
4 | FAKLLFKALKKAL-NH2 [P112, FAKLLFKALKKAL-NH2] | 200 µg/mL | 50 µg/mL | > (> indicates greater than 1000) | 420 µg/mL | 100 µg/mL | 445 µg/mL | 640 µg/mL | 660 µg/mL | 800 µg/mL | 470 µg/mL | 500 µg/mL | 420 µg/mL | –
5 | FAKLLAKLAKAKA-NH2 [P95] | 200 µg/mL | 100 µg/mL | > (> indicates greater than 1000) | 250 µg/mL | > (> indicates greater than 200 μg/mL) | 820 µg/mL | > (> indicates greater than 1000) | > (> indicates greater than 1000) | > (> indicates greater than 1000) | > (> indicates greater than 1000) | > (> indicates greater than 1000) | 250 µg/mL | –
6 | FALALKLKKL-NH2 [P181] | 200 µg/mL | 100 µg/mL | > (> indicates greater than 1000) | 500 µg/mL | 100 µg/mL | 830 µg/mL | > (> indicates greater than 1000) | > (> indicates greater than 1000) | 870 µg/mL | > (> indicates greater than 1000) | 550 µg/mL | 500 µg/mL | –
7 | FAKLLAKLAKKFAL-NH2 [P120, FAKLLAKLAKKFAL-NH2] | 200 µg/mL | 50 µg/mL | > (> indicates greater than 1000) | 600 µg/mL | 200 µg/mL | 660 µg/mL | > (> indicates greater than 1000) | 810 µg/mL | 630 µg/mL | 620 µg/mL | 730 µg/mL | 600 µg/mL | –
8 | FAKLA-NH2 [P128, FAKLA-NH2] | 100 µg/mL | > (> indicates greater than 200 μg/mL) | > (> indicates greater than 1000) | 500 µg/mL | 200 µg/mL | 330 µg/mL | > (> indicates greater than 1000) | 700 µg/mL | 530 µg/mL | > (> indicates greater than 1000) | 500 µg/mL | 500 µg/mL | –
9 | KAKLAKKALAKLL-NH2 [P149] | 100 µg/mL | 50 µg/mL | > (> indicates greater than 1000) | – | 200 µg/mL | > (> indicates greater than 1000) | > (> indicates greater than 1000) | > (> indicates greater than 1000) | > (> indicates greater than 1000) | > (> indicates greater than 1000) | > (> indicates greater than 1000) | > (> indicates greater than 1000) | > (> indicates greater than 1000)
10 | FAKLLAKLAKKEL-NH2 [P126] | > (> indicates greater than 200 μg/mL) | > (> indicates greater than 200 μg/mL) | > (> indicates greater than 1000) | – | > (> indicates greater than 200 μg/mL) | > (> indicates greater than 1000) | > (> indicates greater than 1000) | > (> indicates greater than 1000) | > (> indicates greater than 1000) | > (> indicates greater than 1000) | > (> indicates greater than 1000) | > (> indicates greater than 1000) | > (> indicates greater than 1000)
11 | FAKKLAKALL-NH2 [P58] | 100 µg/mL | 100 µg/mL | > (> indicates greater than 1000) | – | 200 µg/mL | > (> indicates greater than 1000) | > (> indicates greater than 1000) | > (> indicates greater than 1000) | > (> indicates greater than 1000) | > (> indicates greater than 1000) | > (> indicates greater than 1000) | > (> indicates greater than 1000) | > (> indicates greater than 1000)
12 | FAKLLAKLAKK-NH2 [P151] | > (> indicates greater than 200 μg/mL) | > (> indicates greater than 200 μg/mL) | > (> indicates greater than 1000) | – | 200 µg/mL | > (> indicates greater than 1000) | > (> indicates greater than 1000) | > (> indicates greater than 1000) | > (> indicates greater than 1000) | > (> indicates greater than 1000) | > (> indicates greater than 1000) | > (> indicates greater than 1000) | > (> indicates greater than 1000)
